Biological target: Complement factor D (Homo sapiens, UniProt P00746)
Test: Inhibition Assay: Human factor D (purified from human serum, Complement Technology, Inc.) at 80 nM final concentration is incubated with test compound at various concentrations for 5 minutes at room temperature in 50 mM Tris, 1M NaCl, pH 7.5. A synthetic substrate Z-L-Lys-SBzl and DTNB (Ellman's reagent) are added to final concentrations of 10 μM each. The increase in color is recorded at OD405 nm in a microplate in kinetic mode over 30 minutes with 30 second time points in a […]. IC50 values are calculated by non-linear regression from the percentage of inhibition of complement factor D activity as a function of test compound concentration.

Chain of Complement factor D (P00746 whole entry): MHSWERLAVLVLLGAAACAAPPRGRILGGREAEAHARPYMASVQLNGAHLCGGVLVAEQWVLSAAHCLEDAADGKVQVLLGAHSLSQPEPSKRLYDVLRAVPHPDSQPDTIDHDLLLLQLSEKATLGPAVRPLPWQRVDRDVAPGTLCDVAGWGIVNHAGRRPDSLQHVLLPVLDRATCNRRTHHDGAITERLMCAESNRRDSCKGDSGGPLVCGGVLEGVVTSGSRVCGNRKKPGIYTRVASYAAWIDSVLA

SMILES | IC50 [nM]
NC(=O)c1cn(CC(=O)N2C[C@H](F)C[C@H]2C(=O)Nc2cccc(-c3ccccc3Cl)c2F)c2ccsc12 | < 1000
NC(=O)c1nn(CC(=O)N2C[C@H](F)C[C@H]2C(=O)Nc2cccc(Br)n2)c2c1C=CC1N=C(c3cccc(Cl)c3)N=C21 (some centres not stated) | < 1000
